The target in one assay is JNK1 (Homo sapiens, UniProt P45983). Description: KINOMEscan competition binding assay, selectivity JNK1 versus MKK4. As to conditions: ratio of percent of control.
In a further assay the target is T1, MKK4 active (Homo sapiens, UniProt P45985).
T1 construct: purchased ProQinase 0948-0000-1
T1 sequence (P45985 1-399): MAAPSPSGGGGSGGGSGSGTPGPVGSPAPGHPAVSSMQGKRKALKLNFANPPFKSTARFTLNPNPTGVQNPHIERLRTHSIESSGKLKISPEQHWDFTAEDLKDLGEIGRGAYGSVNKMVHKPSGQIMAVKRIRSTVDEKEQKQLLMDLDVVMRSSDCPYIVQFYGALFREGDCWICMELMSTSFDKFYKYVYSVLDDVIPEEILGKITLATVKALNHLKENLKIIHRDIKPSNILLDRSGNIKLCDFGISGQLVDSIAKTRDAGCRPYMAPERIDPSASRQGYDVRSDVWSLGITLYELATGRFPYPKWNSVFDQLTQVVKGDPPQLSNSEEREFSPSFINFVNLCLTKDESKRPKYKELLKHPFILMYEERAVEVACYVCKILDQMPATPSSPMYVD
Description: Radiometric protein kinase assay, MKK4 active. Format: biochemical. Conditions: substrate JNK1 KRKR, ATP 0.2 μM, read-out: MKK4 (potency derived from IC50-values). How it is done:
(§1) A radiometric protein kinase assay was used for measuring the kinase activity of the respective protein kinases. All kinase assays were performed in 96-well polypropylene plates. After the reactions were stopped, the assay mixtures were transferred to 96-well MSFC filter-plates (Millipore). The reaction mix was passed through the filter membrane by aspiration, the membrane was washed 3 times with 150 mM H3PO4, once with ethanol, dried and liquid scintillation cocktail was added. Radioactivity was determined by counting of the samples in a Microbeta multiwell scintillation counter (Wallac).
(§2) b) Single Kinases • 20 μl standard assay buffer • 5 μl compound in 10% DMSO • 20 μl enzyme-substrate mix • 10 μl of substrate solution
(§3) The reaction cocktails were incubated at 30° C. for 30 minutes.

In a further assay the target is T2, MKK7 (Homo sapiens, UniProt O14733).
T2 sequence (O14733 1-419): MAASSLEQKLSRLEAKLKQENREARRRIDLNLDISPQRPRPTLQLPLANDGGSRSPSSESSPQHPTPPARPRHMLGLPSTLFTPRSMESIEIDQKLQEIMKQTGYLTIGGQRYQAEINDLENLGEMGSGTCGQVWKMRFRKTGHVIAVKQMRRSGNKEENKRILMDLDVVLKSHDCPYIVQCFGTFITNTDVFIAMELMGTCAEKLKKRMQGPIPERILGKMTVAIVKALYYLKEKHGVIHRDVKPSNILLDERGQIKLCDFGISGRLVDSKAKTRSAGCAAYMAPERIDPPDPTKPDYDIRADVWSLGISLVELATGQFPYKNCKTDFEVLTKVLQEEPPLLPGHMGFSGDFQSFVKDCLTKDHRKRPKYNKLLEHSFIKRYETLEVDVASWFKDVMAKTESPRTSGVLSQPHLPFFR
Description: KINOMEscan competition binding assay, selectivity MKK7 versus MKK4. As to conditions: Test conc. 0.1 μM; ratio of percent of control; N/E* per footnote.

Another assay addresses BRaf (Homo sapiens, UniProt P15056). Description: KINOMEscan competition binding assay, selectivity BRaf versus MKK4. Conditions: Test conc. 0.1 μM; ratio of percent of control; N/E* per footnote. Here is the method:
The assay was performed by combining three components: DNA-tagged kinase; immobilized ligand; and a test compound. The ability of the test compound to compete with the immobilized ligand was measured via quantitative PCR of the DNA tag. The technology is described in detail in Fabian, M. A. et al. A small molecule-kinase interaction map for clinical kinase inhibitors. Nat. […] Nat.
The test compounds were provided as 10 mM stock solutions. The test solutions at indicated final concentrations were prepared at DiscoverX.

The target in the next assay is T3, MEKK2 (Homo sapiens, UniProt Q9Y2U5).
T3 construct: purchased ProQinase 0583-0000-1
T3 sequence (Q9Y2U5 1-619): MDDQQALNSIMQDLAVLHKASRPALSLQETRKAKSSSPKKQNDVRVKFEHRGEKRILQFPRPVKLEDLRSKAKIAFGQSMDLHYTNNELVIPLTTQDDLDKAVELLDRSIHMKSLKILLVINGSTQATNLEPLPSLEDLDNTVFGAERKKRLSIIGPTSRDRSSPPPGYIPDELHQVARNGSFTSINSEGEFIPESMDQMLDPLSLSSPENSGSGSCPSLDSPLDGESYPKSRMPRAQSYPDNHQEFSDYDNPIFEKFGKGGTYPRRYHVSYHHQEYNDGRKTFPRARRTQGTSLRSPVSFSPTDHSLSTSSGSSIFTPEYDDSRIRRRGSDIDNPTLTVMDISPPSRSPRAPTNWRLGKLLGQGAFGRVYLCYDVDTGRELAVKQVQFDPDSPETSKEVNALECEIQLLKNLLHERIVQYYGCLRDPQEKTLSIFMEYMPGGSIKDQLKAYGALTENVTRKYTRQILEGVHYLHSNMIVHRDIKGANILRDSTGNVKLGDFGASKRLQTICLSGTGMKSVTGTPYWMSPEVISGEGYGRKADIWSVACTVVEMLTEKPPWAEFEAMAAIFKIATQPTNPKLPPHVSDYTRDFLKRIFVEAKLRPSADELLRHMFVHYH
The assay can be described thus: Radiometric protein kinase assay, MEKK2. Format: biochemical. Conditions: substrate Casein, ATP 0.2 μM; read-out: MEKK2 (potency derived from IC50-values). How it is done:
as §1, §2, §3

The next assay concerns the target T4, MKK4 (Homo sapiens, UniProt P45985).
T4 sequence (P45985 84-399): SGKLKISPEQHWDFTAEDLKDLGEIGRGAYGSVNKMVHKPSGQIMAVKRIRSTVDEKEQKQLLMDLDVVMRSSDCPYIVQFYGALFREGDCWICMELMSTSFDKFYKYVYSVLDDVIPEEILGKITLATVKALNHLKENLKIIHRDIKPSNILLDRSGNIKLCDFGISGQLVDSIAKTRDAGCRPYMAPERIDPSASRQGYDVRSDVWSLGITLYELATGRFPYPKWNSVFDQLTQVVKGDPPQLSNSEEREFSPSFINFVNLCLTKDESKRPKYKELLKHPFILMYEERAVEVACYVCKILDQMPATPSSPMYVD
The assay can be described thus: KINOMEscan competition binding assay, MKK4. Conditions: read-out: Potency MKK4 (derived from % of control values, PoC).

The mark [1] stands for this setting: Test conc 0.1 μM, N/E* = PoC for JNK1 = 100.

As a reminder, the pIC50 is −log10 of the IC50, conventionally taken in molar units.

pIC50: −log10 of the molar value.

JNK1, sequence (P45983 1-384 isoform P45983-2): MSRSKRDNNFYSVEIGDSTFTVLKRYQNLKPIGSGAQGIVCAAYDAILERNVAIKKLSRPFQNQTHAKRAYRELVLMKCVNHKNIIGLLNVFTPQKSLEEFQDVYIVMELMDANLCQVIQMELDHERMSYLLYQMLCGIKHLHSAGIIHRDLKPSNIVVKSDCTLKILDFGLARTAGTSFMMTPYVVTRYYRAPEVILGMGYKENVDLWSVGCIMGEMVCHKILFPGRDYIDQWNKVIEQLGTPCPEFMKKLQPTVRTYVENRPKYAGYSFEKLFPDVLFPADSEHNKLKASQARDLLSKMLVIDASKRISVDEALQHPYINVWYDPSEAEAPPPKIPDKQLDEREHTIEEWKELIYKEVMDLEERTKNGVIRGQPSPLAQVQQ
BRaf, sequence (P15056 whole entry): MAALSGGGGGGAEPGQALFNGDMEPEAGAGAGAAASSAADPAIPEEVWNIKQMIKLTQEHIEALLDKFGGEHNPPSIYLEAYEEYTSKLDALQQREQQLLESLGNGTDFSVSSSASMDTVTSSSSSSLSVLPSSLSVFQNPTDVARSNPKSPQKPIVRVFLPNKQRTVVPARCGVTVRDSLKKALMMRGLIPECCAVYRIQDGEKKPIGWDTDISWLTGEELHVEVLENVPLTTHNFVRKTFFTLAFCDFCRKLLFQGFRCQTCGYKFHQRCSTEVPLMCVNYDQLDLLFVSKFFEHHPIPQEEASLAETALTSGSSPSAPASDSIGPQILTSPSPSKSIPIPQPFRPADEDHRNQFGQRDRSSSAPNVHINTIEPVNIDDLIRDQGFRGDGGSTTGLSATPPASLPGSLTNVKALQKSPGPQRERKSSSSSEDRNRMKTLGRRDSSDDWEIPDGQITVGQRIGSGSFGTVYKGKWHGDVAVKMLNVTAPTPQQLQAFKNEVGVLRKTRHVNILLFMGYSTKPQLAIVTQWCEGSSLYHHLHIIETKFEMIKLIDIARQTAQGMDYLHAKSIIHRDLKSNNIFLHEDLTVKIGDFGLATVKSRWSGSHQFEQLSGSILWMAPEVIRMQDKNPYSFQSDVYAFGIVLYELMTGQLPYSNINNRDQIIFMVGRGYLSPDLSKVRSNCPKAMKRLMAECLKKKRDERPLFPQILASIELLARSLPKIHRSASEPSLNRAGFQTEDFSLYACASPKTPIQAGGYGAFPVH
Description for JNK1: (§4) For investigation of the affinity to MKK4, MKK7 and JNK1, the kinases were produced in HEK-293 cells and subsequently tagged with DNA for qPCR detection. […] The liganded beads were blocked with excess biotin and washed with blocking buffer (SEABLOCK™ (Pierce), 1% BSA, 0.05% TWEEN®20, 1 mM DTT) to remove unbound ligand and to reduce nonspecific binding. […] All reactions were performed in polystyrene 96-well plates in a final volume of 0.135 mL. […] The kinase concentration in the eluates was measured by qPCR.
Description for MKK7: as §4

`CCCS(=O)(=O)Nc1ccc(F)c(C(=O)c2c[nH]c3ncc(-c4ccc(C(C)C)cc4)cc23)c1F` [Example 7, N-(2,4-Difluoro-3-(5-(4-isopropylphenyl)-1H-pyrrolo[2,3-b]pyridine-3-carbonyl)phenyl)propane-1-sulfonamide]: the “Selectivity JNK1/MKK4” value at JNK1 (Test conc 10 μM) is recorded as over 100. The pIC50 was 6.00 to 6.30 at MKK4 active and under 5.00 on MEKK2. Besides, the “Selectivity MKK7/MKK4” value on MKK7 is 3.0. The “Selectivity BRaf/MKK4” value on BRaf is recorded as 0.9. Also, the remaining binding at 0.1 µM at MKK4 was over 30%.

For the molecule `CCCS(=O)(=O)Nc1ccc(F)c(C(=O)c2c[nH]c3ncc(-c4ccc5c(c4)OCO5)cc23)c1F` [Example 10, N-(3-(5-(Benzo[d][1,3]dioxol-5-yl)-1H-pyrrolo[2,3-b]pyridine-3-carbonyl)-2,4-difluorophenyl)propane-1-sulfonamide], the “Selectivity JNK1/MKK4” value at JNK1 (Test conc 10 μM) was over 100. For the same molecule, the pIC50 on MKK4 active and at MEKK2 was under 5.00 in each case. On MKK7, the “Selectivity MKK7/MKK4” value came out at 270. The “Selectivity BRaf/MKK4” value at BRaf stood at 4.2. Besides, on MKK4, the remaining binding at 0.1 µM was under 10%.

Take `CCCS(=O)(=O)Nc1ccc(F)c(C(=O)c2c[nH]c3ncc(-c4ccc(F)cc4C)cc23)c1F` [Example 12, N-(2,4-Difluoro-3-(5-(4-fluoro-2-methylphenyl)-1H-pyrrolo[2,3-b]pyridine-3-carbonyl)phenyl)propane-1-sulfonamide]: on JNK1 (Test conc 10 μM), the “Selectivity JNK1/MKK4” value is over 100. Moreover, the pIC50 on MKK4 active was 6.00 to 6.30; at MEKK2, under 5.00. At MKK7, the “Selectivity MKK7/MKK4” value stood at 10. Further, the “Selectivity BRaf/MKK4” value at BRaf was found to be 7.8. Besides, at MKK4, the remaining binding at 0.1 µM was 10 to 30%.

For `CCCS(=O)(=O)Nc1ccc(F)c(C(=O)c2c[nH]c3ncc(-c4ccccc4Cl)cc23)c1F` [Example 13, N-(3-(5-(2-Chlorophenyl)-1H-pyrrolo[2,3-b]pyridine-3-carbonyl)-2,4-difluorophenyl)propane-1-sulfonamide], the “Selectivity JNK1/MKK4” value on JNK1 (Test conc 10 μM) is listed as over 100. The pIC50 on MKK4 active is over 6.30; on MEKK2, 5.00 to 6.00. Also, on MKK7, the “Selectivity MKK7/MKK4” value is reported as 10. Moreover, the “Selectivity BRaf/MKK4” value on BRaf was determined as 10.5. The remaining binding at 0.1 µM at MKK4 lay within 10 to 30%.

For the molecule `CS(=O)(=O)Nc1cccc(C(=O)c2c[nH]c3ncc(-c4ccc5c(c4)OCCO5)cc23)c1F` [Example 36, N-(3-(5-(2,3-Dihydrobenzo[b][1,4]dioxin-6-yl)-1H-pyrrolo[2,3-b]pyridine-3-carbonyl)-2-fluorophenyl)methanesulfonamide], at JNK1 (setting [1]), the “Selectivity JNK1/MKK4” value is “N/E* (PoC for JNK1 = 100)”. For the same molecule, the pIC50 at MKK4 active and at MEKK2 was under 5.00 in each case. Besides, on MKK7, the “Selectivity MKK7/MKK4” value is 19.6. Besides, the “Selectivity BRaf/MKK4” value on BRaf worked out at 18.8. In addition, the remaining binding at 0.1 µM at MKK4 was under 10%.

With `Cc1cc(F)ccc1-c1cnc2[nH]cc(C(=O)c3cccc(NS(C)(=O)=O)c3F)c2c1` [Example 37, N-(2-Fluoro-3-(5-(4-fluoro-2-methylphenyl)-1H-pyrrolo[2,3-b]pyridine-3-carbonyl)phenyl)methanesulfonamide], at JNK1 (setting [1]), the “Selectivity JNK1/MKK4” value is given as “N/E* (PoC for JNK1 = 100)”. Moreover, the pIC50 on MKK4 active was 6.00 to 6.30; on MEKK2, under 5.00. Besides, the “Selectivity MKK7/MKK4” value at MKK7 is listed as 14.1. The “Selectivity BRaf/MKK4” value on BRaf came out at 13.2. Moreover, the remaining binding at 0.1 µM at MKK4 was under 10%.

On to `CCCS(=O)(=O)Nc1ccc(F)c(C(=O)c2c[nH]c3ncc(-c4cc5c(cc4Cl)OCO5)cc23)c1F` [Example 43, N-(3-(5-(6-Chlorobenzo[d][1,3]dioxol-5-yl)-1H-pyrrolo[2,3-b]pyridine-3-carbonyl)-2,4-difluorophenyl)propane-1-sulfonamide], for which the “Selectivity JNK1/MKK4” value at JNK1 (setting [1]) is given as “N/E* (PoC for JNK1 = 100)”. Also, the pIC50 on MKK4 active was over 6.30; at MEKK2, 5.00 to 6.00. Further, on MKK7, the “Selectivity MKK7/MKK4” value is reported as 9.1. Also, the “Selectivity BRaf/MKK4” value at BRaf is recorded as 7.7.

For the origin of these results see patent US11040027B2, “Protein kinase inhibitors for promoting liver regeneration or reducing or preventing hepatocyte death” (HEPAREGENIX GMBH, priority 2017, dated 2021).
